Assay results: PubChem BioAssay AID449750 (Broad Institute, 2010)
Calls of active or inactive are those of the source. No rule for the calls is given here.

Test: non-covalent RecA intein splicing inhibitors, dose response, biochemical, cell-free, fluorescence, secondary screen (AID 449750)

Structure (SMILES)	AC50
CCOC(=O)c1cc2cc3ccccc3cc2[nH]1	> 38 µM (inactive)
Cc1ccc(C2=NN(C(=O)CCl)C(c3ccco3)C2)o1 (stereo not given)	6.65 µM
O=C(CSC1=NCCS1)Nc1nc(-c2ccccc2)cs1	30.5 µM
Oc1ccc(N=Cc2ccc(O)c(O)c2)cc1	17.6 µM
N#Cc1ccc(-n2c(-c3ccccc3)nnc2-c2ccccc2)cc1C#N	> 38 µM (inactive)
Cc1cccc(N2C(=O)C(Cl)=C(N3CCOCC3)C2=O)c1	> 38 µM (inactive)
CC(=O)Nc1ccc(NC(=O)c2nc(S(=O)(=O)Cc3ccccc3)ncc2Cl)cc1	> 38 µM (inactive)
O=C(NN=c1c(=O)c2ccccc2c1=O)c1ccccc1	8.96 µM
CC(C)c1ccc(S(=O)(=O)/N=C2\C=C(NS(=O)(=O)c3ccccc3)C(=O)c3ccccc32)cc1	6.05 µM
CNCc1ccccc1Sc1ccc(O)c(O)c1	> 38 µM (inactive)
Cc1cc(N/N=C/c2ccc(O)c(C)c2O)nc(-c2ccccc2O)n1	> 38 µM (inactive)
Cc1cccc(NC(=S)N/N=C2/CCCCc3ccccc32)c1	> 38 µM (inactive)
Cc1ccc(Sc2ccc(NC(=O)CCl)cc2)c(C)c1	1.18 µM
CCOC(=O)c1c(CSC(=N)N)n(-c2ccccc2)c2cc(Br)c(OC(C)=O)cc12	23.6 µM
COc1cc(C(c2c(C)[nH][nH]c2=O)c2c(C)[nH][nH]c2=O)cc(Br)c1OC	13.9 µM
Cc1ccc(Sc2ccc(NC(=O)CCl)cc2)cc1C	0.699 µM
N=c1c2c(-c3ccccc3)c(-c3ccccc3)n(Cc3ccco3)c2ncn1Cc1ccco1	6.99 µM
FC(F)(F)c1ccc2c(c1)N(CCCN1CCN(CCCl)CC1)c1ccccc1S2	2.54 µM
CCc1ccc(/C=C/C(=O)C2C(=O)c3ccccc3C2=O)cc1	7.06 µM
CCn1nc(/C=C/c2ccccc2)nc2c(=O)n(C)c(=O)nc1-2	0.0666 µM
O=[N+]([O-])c1ccc(Sc2nnnn2-c2ccccc2)nc1	> 38 µM (inactive)
CNC1=C(N(C(C)=O)c2ccc(Br)cc2)C(=O)c2ccccc2C1=O	2.43 µM
Cn1nc([N+](=O)[O-])c(C(C#N)c2ccccn2)c(Cl)c1=O (stereo not given)	> 38 µM (inactive)
CC1=C(C)/C(=N/OC(=O)c2cccc([N+](=O)[O-])c2)C=CC1=O	> 38 µM (inactive)
CC(=O)C12CC(C)=C(C)CC1CC1C3CCC4=CC(=O)CCC4(C)C3CCC12C (stereo not given)	4.58 µM

Structure (SMILES)	AC50
COc1ccc(C(c2c(C)[nH]n(-c3ccccc3)c2=O)c2c(C)[nH]n(-c3ccccc3)c2=O)cc1OC	1.38 µM
Cc1[nH]nc2c1C(c1cccc(OC(=O)N3CCOCC3)c1)C(C#N)=C(N)O2 (stereo not given)	> 38 µM (inactive)
Oc1[nH]c2ccc(Br)cc2c1N=NC(=S)N1CCOCC1	> 38 µM (inactive)
O=C(NC1CCCC1)C(c1ccc(F)cc1)N(Cc1ccc(Cl)cc1)C(=O)CCl (stereo not given)	5.55 µM
COc1ccc(NC(=O)c2cccc(N3C(=O)C4C5C=CC(C5)C4C3=O)c2)cc1Cl (stereo not given)	> 38 µM (inactive)
O=c1c2c([nH]n1-c1ccccc1)CCSC2	36.5 µM
CS(=O)(=O)c1nc([N+](=O)[O-])nn1CCCc1ccccc1	10.7 µM
Cc1cccn2c(CNCC3(c4ccccc4)CCCC3)c(C(=O)N3CCOCC3)nc12	> 38 µM (inactive)
CCCCCCCCCCCCCCCC[N+](C)(C)C	12.1 µM
CCOC(=O)c1oc2nc(CC(C)C)c3c(c2c1N)CCC3	> 38 µM (inactive)
CCOC(=O)C1CCC2(CC1)C(C#N)=C(N)Oc1n[nH]c(C)c12 (stereo not given)	> 38 µM (inactive)
CS(=O)(=O)c1ncc(Cl)c(C(=O)Nc2ccc(N3CCOCC3)cc2)n1	> 38 µM (inactive)
COc1cc(C(=O)CSc2nnc(-c3ccc(O)cc3)n2CC2CCCO2)ccc1NC(C)=O (stereo not given)	> 38 µM (inactive)
CCCC(=O)N(C1CC(C)C(C#N)(C#N)C1(C#N)C#N)N(C)C (stereo not given)	> 38 µM (inactive)
CC1=NNC(=O)C1C(c1cccc(O)c1)C(C#N)C#N (stereo not given)	> 38 µM (inactive)
NS(=O)(=O)c1ccc(N=Cc2c(O)c3ccccc3oc2=O)cc1	> 38 µM (inactive)
CSc1nnc(NC(=O)c2nc(S(=O)(=O)Cc3ccccc3F)ncc2Cl)s1	> 38 µM (inactive)
CC(=O)NC1C(=O)N(CCN2CCOCC2)c2ccc(Br)cc21 (stereo not given)	18.1 µM
CC(=O)c1cccc(NC(=O)CSc2ncc(C(=O)Nc3ccccc3)c(=O)n2C)c1	> 12 µM (inactive)
Nc1nc(C(=O)N2CCOCC2)nn1C(=O)c1ccc(Cl)cc1	> 38 µM (inactive)
Cc1nc2c(=O)n(C)c(=O)n(C)c2nc1Cl	> 38 µM (inactive)
Cc1ccc(C2C(C#N)=C(N)Oc3n[nH]c(-c4ccccc4)c32)o1 (stereo not given)	> 38 µM (inactive)
COc1cc(C2C(C#N)=C(N)Oc3n[nH]c(C)c32)ccc1OC(=O)c1ccccc1 (stereo not given)	> 38 µM (inactive)
COc1ccc(CC(=O)N/N=C(/C)CC(=O)N(C)c2ccccc2)cc1	> 38 µM (inactive)
Cc1ccc(NC2=C(Cl)C(=O)OC2OC(=O)c2ccco2)cc1C (stereo not given)	> 38 µM (inactive)

Structure (SMILES)	AC50
O=C(Cc1ccccc1F)Nc1nc2ccccc2[nH]1	> 38 µM (inactive)
CC1CCCC(NC(=O)NC(=O)CCl)C1C (stereo not given)	29.3 µM
CCOC(=O)CSc1nnc(NCC(=O)OC(C)C)c(=O)[nH]1	> 38 µM (inactive)
ONc1cccnc1-n1nc(C(F)(F)F)cc1C(F)(F)F	> 38 µM (inactive)
Cc1cc(C(=O)c2ccc(Cl)cc2)c(NC(=O)CCl)s1	1.19 µM
O=C(O)c1ccccc1-c1ccccc1C(=O)Nc1ccc(-c2nc3cc(Cl)ccc3o2)cc1	9.29 µM
O=C(c1cccc(C(F)(F)F)c1)C1CCCN(Cc2ncc[nH]2)C1 (stereo not given)	> 38 µM (inactive)
CC1=NN(C)C(=O)C1Cc1c(F)cccc1Cl (stereo not given)	> 38 µM (inactive)
COc1ccc(-c2[nH]nc3c2C(c2ccccc2OC(=O)N2CCOCC2)C(C#N)=C(N)O3)cc1 (stereo not given)	38.2 µM
Cc1cc(-c2[nH]nc3c2C(c2ccsc2)C(C#N)=C(N)O3)c(C)s1 (stereo not given)	13.6 µM
CCOc1ccc(C(c2c(C)[nH][nH]c2=O)c2c(C)[nH][nH]c2=O)cc1OC	6.7 µM
COc1cccc(N(C(=O)CCl)C(C(=O)NCCc2ccccc2)c2cccs2)c1 (stereo not given)	1.29 µM
Clc1ccc(CSC(Cn2ccnc2)c2ccc(Cl)cc2Cl)cc1 (stereo not given)	8.47 µM
CCCCNC1=CC(=O)C(=O)c2ccccc21	7.53 µM
CCN(CC)c1ccc(/C=N/Nc2nc(C)cc(=O)[nH]2)c(O)c1	> 38 µM (inactive)
CC(=O)N(C)Cc1ccc(C(=O)CCl)cc1	> 38 µM (inactive)
Cn1c(=O)c([N+](=O)[O-])c(Cl)c2ccccc21	> 38 µM (inactive)
O=C(CN1CCN(S(=O)(=O)c2ccc(Cl)cc2)CC1)Nc1ccc2c(c1)OCO2	> 38 µM (inactive)
O=C(CCCN1C(=O)/C(=C/c2ccccc2)SC1=S)Nc1ccc(O)cc1	> 38 µM (inactive)
Cc1ccc(S(=O)(=O)Oc2ccc(C(c3c(C)[nH][nH]c3=O)c3c(C)[nH][nH]c3=O)cc2)cc1	2.22 µM
O=C(Oc1ccc(C(=S)N2CCOCC2)cc1)c1ccc([N+](=O)[O-])cc1[N+](=O)[O-]	> 38 µM (inactive)
O=c1cc(C23CC4CC(CC(C4)C2)C3)[nH][nH]1	> 38 µM (inactive)
Nc1ccc2c(c1)C(=O)C(=O)c1ccccc1-2	17.6 µM
COc1ccc(-c2cc(=O)[nH][nH]2)cc1	8.39 µM
COc1ccc(C(=O)NC(=S)NNC(=O)CCc2ccccc2)cc1	> 38 µM (inactive)
